Measured values published in US20240150377A1, “MODULATORS OF CYSTIC FIBROSIS TRANSMEMBRANE CONDUCTANCE REGULATOR” (VERTEX PHARMACEUTICALS INCORPORATED, priority 2020, published 2024).

Target: T1, CFTR (Homo sapiens, UniProt P13569, DEL508-508)
T1 construct: endogenous in cells; host or cells: primary human bronchial epithelial cells from CF subjects (F508del/MF-HBE), differentiated at air-liquid interface
Assay: HBE2 assay: Ussing chamber assay of CFTR-mediated short-circuit currents
Format: cell-based
Details: F508del/MF-HBE cells, 18-24 hours, 20% human serum; for Emax: read-out: HBE2 Max activity (%)
In short: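 Corrector activity read as CFTR-dependent ISC (μA/cm^2): peak forskolin current minus post-inhibitor steady state. Measured at 37 °C, voltage clamp at 0 mV, on F508del/MF-HBE epithelia grown >14 days air-liquid interface in Ussing chambers.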

[1] = 3 μM corrector, with 44 nM potentiator
[2] = corrector at a range of concentrations with 44 nM potentiator

T1 sequence (P13569 with tags, fused parts or gaps DEL508-508): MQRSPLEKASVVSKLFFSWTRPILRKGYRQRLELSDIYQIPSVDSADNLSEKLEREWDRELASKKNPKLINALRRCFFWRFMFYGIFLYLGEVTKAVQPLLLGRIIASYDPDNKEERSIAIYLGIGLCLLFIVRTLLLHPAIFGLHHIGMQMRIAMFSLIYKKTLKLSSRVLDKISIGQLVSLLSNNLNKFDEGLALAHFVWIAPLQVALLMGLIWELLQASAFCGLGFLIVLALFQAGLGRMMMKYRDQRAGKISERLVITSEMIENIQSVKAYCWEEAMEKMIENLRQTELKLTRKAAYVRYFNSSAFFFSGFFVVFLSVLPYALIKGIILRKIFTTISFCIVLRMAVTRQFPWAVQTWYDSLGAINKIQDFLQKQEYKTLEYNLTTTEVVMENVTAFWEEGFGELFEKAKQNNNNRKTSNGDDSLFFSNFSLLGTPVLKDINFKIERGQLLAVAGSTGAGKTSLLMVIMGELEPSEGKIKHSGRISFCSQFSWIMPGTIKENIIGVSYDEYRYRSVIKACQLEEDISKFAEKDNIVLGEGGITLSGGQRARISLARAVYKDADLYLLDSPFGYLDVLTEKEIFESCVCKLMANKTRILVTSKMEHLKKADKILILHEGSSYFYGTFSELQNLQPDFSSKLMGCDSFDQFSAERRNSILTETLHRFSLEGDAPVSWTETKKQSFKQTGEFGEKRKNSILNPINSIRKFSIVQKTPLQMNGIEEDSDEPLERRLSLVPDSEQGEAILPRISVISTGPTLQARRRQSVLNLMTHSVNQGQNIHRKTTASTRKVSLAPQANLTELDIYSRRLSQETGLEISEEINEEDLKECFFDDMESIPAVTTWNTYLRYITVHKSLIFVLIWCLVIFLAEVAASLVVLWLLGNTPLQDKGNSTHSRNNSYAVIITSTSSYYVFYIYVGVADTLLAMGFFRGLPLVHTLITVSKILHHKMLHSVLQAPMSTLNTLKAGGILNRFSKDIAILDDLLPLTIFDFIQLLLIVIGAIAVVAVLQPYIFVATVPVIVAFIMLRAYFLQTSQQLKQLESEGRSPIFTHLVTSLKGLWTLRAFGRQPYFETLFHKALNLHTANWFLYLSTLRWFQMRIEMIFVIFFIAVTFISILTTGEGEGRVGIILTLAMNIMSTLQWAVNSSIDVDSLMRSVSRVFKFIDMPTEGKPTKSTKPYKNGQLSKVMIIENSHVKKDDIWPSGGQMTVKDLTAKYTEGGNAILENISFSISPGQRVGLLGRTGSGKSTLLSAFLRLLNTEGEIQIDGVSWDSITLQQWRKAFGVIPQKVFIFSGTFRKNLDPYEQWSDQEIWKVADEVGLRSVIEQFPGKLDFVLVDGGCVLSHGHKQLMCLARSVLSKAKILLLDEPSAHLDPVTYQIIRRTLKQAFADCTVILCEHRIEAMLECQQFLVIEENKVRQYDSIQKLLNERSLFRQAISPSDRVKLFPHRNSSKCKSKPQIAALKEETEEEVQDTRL

Row | SMILES | HBE2 Activity at 3 μM (%) [1] | further results
1 | COCC1CC2(CCN2c2cncc(CN3C(=O)c4cccc(c4)S(=O)(=O)Nc4nc(cc(-c5c(C)cccc5C)n4)OC[C@H]3CC(C)(C)C)n2)C1 (some centres unmarked) [Compound 1707] |  | HBE2 Activity at 3 μM (%) (3 μM, with 44 nM potentiator): +++ (+++ is >60+)
2 | Cc1cccc(C)c1-c1cc2nc(n1)NS(=O)(=O)c1cccc(c1)C(=O)N(Cc1cncc(N3C[C@H]4CCC[C@H]43)n1)[C@H](CC(C)(C)C)CO2 [Compound 1708] |  | HBE2 Activity at 3 μM (%) (3 μM, with 44 nM potentiator): +++ (+++ is >60+)
3 | Cc1cccc(C)c1-c1cc2nc(n1)NS(=O)(=O)c1cccc(c1)C(=O)N(Cc1cncc(N(C)CC(C)C)n1)[C@H](CC1CC1)CO2 [Compound 1710] |  | HBE2 Activity at 3 μM (%) (3 μM, with 44 nM potentiator): +++ (+++ is >60+); EC50 (with 44 nM potentiator): < 1 µM; Emax (with 44 nM potentiator): > 60%
4 | Cc1cccc(C)c1-c1cc2nc(n1)NS(=O)(=O)c1cccc(c1)C(=O)N(Cc1cncc(N(C)CC(C)C)n1)[C@H](CC1(C)CC1)CO2 [Compound 1711] |  | HBE2 Activity at 3 μM (%) (3 μM, with 44 nM potentiator): +++ (+++ is >60+); EC50 (with 44 nM potentiator): < 1 µM; Emax (with 44 nM potentiator): > 60%
5 | Cc1cccc(C)c1-c1cc2nc(n1)NS(=O)(=O)c1cccc(c1)C(=O)N(Cc1cncc(N(C)CC(C)C)n1)[C@H](CC1CCC1)CO2 [Compound 1712] | +++ (+++ is >60+) | EC50 [2]: < 1 µM; Emax (with 44 nM potentiator): > 60%
6 | Cc1cccc(C)c1-c1cc2nc(n1)NS(=O)(=O)c1cccc(c1)C(=O)N(Cc1cncc(N(C)CC(C)C)n1)[C@H](CC(C)C)CO2 [Compound 1713] | +++ (+++ is >60+) | 
7 | Cc1cccc(C)c1-c1cc2nc(n1)NS(=O)(=O)c1cccc(c1)C(=O)N(Cc1cnc(C)c(N(C)C3CCC3)n1)[C@H](CC(C)(C)C)CO2 [Compound 1714] | +++ (+++ is >60+) | 
8 | Cc1cccc(C)c1-c1cc2nc(n1)NS(=O)(=O)c1cccc(c1)C(=O)N(Cc1nccc(N(C)C(C)C)n1)[C@H](CCC(C)(C)C)CO2 [Compound 1715] | +++ (+++ is >60+) | 
9 | Cc1cccc(C)c1-c1cc2nc(n1)NS(=O)(=O)c1cccc(c1)C(=O)N(Cc1cncc(N3CCC[C@H]3C(C)C)n1)[C@H](CCC(C)(C)C)CO2 [Compound 1716] | +++ (+++ is >60+) | EC50 [2]: < 1 µM; Emax (with 44 nM potentiator): > 60%
10 | Cc1cccc(C)c1-c1cc2nc(n1)NS(=O)(=O)c1cccc(c1)C(=O)N(Cc1cncc(N(C)CC(C)C)n1)[C@H](CCC1CC1)CO2 [Compound 1717] | +++ (+++ is >60+) | 
11 | Cc1cccc(C)c1-c1cc2nc(n1)NS(=O)(=O)c1cccc(c1)C(=O)N(Cc1cncc(N(C)C(C)C)n1)[C@H](CCC1CC1)CO2 [Compound 1718] | +++ (+++ is >60+) | 
12 | Cc1cccc(C)c1-c1cc2nc(n1)NS(=O)(=O)c1cccc(c1)C(=O)N(Cc1cncc(N(C)CC(C)(C)C)n1)[C@H](CCC1CC1)CO2 [Compound 1719] | +++ (+++ is >60+) | EC50 [2]: < 1 µM; Emax (with 44 nM potentiator): > 60%
13 | Cc1cccc(C)c1-c1cc2nc(n1)NS(=O)(=O)c1cccc(c1)C(=O)N(Cc1cncc(N3CCC[C@H]3C(C)C)n1)[C@H](CCC1CC1)CO2 [Compound 1720] | +++ (+++ is >60+) | EC50 [2]: < 1 µM; Emax (with 44 nM potentiator): > 60%
14 | CC[C@@H]1CCN1c1cncc(CN2C(=O)c3cccc(c3)S(=O)(=O)Nc3nc(cc(-c4c(C)cccc4C)n3)OC[C@H]2CC(C)(C)C)n1 [Compound 1721] | +++ (+++ is >60+) | 
15 | Cc1cccc(C)c1-c1cc2nc(n1)NS(=O)(=O)c1cccc(c1)C(=O)N(Cc1cncc(N3CCCC[C@H]3C)n1)[C@H](CCC(C)(C)C)CO2 [Compound 1725] | +++ (+++ is >60+) | EC50 [2]: < 1 µM; Emax (with 44 nM potentiator): > 60%
16 | Cc1cccc(C)c1-c1cc2nc(n1)NS(=O)(=O)c1cccc(c1)C(=O)N(Cc1cncc(N3CC[C@H]3C)n1)[C@H](CCC(C)(C)C)CO2 [Compound 1726] | +++ (+++ is >60+) | EC50 [2]: < 1 µM; Emax (with 44 nM potentiator): > 60%
17 | CCC(C)CN(C)c1cncc(CN2C(=O)c3cccc(c3)S(=O)(=O)Nc3nc(cc(-c4c(C)cccc4C)n3)OC[C@H]2CC(C)(C)C)n1 (some centres unmarked) [Compound 1727] | +++ (+++ is >60+) | 
18 | Cc1cccc(C)c1-c1cc2nc(n1)NS(=O)(=O)c1cccc(c1)C(=O)N(Cc1cncc(N3[C@H](C)C[C@@H]3C)n1)[C@H](CC(C)(C)C)CO2 [Compound 1728] | +++ (+++ is >60+) | 
19 | Cc1cc(C)c(-c2cc3nc(n2)NS(=O)(=O)c2cccc(c2)C(=O)N(Cc2cncc(N(C)C4CCC4)n2)[C@H](CC(C)(C)C)CO3)c(C)c1 [Compound 1729] | +++ (+++ is >60+) | 
20 | COC[C@@H]1CCN1c1cncc(CN2C(=O)c3cccc(c3)S(=O)(=O)Nc3nc(cc(-c4c(C)cccc4C)n3)OC[C@H]2CCC(C)(C)C)n1 [Compound 1730] | +++ (+++ is >60+) | EC50 [2]: < 1 µM; Emax (with 44 nM potentiator): > 60%
21 | Cc1cccc(C)c1-c1cc2nc(n1)NS(=O)(=O)c1cccc(c1)C(=O)N(Cc1cncc(N(C)C3CCC3)n1)[C@H](c1ccccc1)CO2 [Compound 1731] | +++ (+++ is >60+) | 

Row | SMILES | HBE2 Activity at 3 μM (%) [1] | further results
22 | Cc1cccc(C)c1-c1cc2nc(n1)NS(=O)(=O)c1cccc(c1)C(=O)N(Cc1cncc(N(C)C3CCC3)n1)[C@H](C(C)(C)C)CO2 [Compound 1732] | +++ (+++ is >60+) | 
23 | Cc1cccc(C)c1-c1cc2nc(n1)NS(=O)(=O)c1cccc(c1)C(=O)N(Cc1cncc(N(C)C3CCC3)n1)[C@H](C1CCCCC1)CO2 [Compound 1733] | +++ (+++ is >60+) | EC50 [2]: < 1 µM; Emax (with 44 nM potentiator): > 60%
24 | Cc1cccc(C)c1-c1cc2nc(n1)NS(=O)(=O)c1cccc(c1)C(=O)N(Cc1nccc(N(C)C(C)C)n1)[C@H](CCC(C)C)CO2 [Compound 1734] | +++ (+++ is >60+) | 
25 | Cc1cccc(C)c1-c1cc2nc(n1)NS(=O)(=O)c1cccc(c1)C(=O)N(Cc1cncc(N(C)CC(C)(C)C)n1)[C@H](CCC(C)(C)C)CO2 [Compound 1739] | +++ (+++ is >60+) | 
26 | Cc1cccc(C)c1-c1cc2nc(n1)NS(=O)(=O)c1cccc(c1)C(=O)N(Cc1cncc(N(C)C3CCC3)n1)[C@@H]1CN(CCC(C)(C)C)C[C@H]1O2 [Compound 1741] | ++ (++ is 30-60%) | 
27 | Cc1cccc(C)c1-c1cc2nc(n1)NS(=O)(=O)c1cccc(c1)C(=O)N(Cc1cncc(N(C)C3CCC3)n1)[C@@H]1CN(C3CC4(CC4)C3)C[C@H]1O2 [Compound 1742] | +++ (+++ is >60+) | 
28 | Cc1cccc(C)c1-c1cc2nc(n1)NS(=O)(=O)c1cccc(c1)C(=O)N(Cc1cncc(N3CCC[C@H]3C)n1)[C@H](CC1(C)CCC1)CO2 [Compound 1743] | +++ (+++ is >60+) | 
29 | Cc1cccc(C)c1-c1cc2nc(n1)NS(=O)(=O)c1cccc(c1)C(=O)N(Cc1cncc(N3CCCC[C@H]3C)n1)[C@H](CC1(C)CCC1)CO2 [Compound 1744] | +++ (+++ is >60+) | 
30 | Cc1cccc(C)c1-c1cc2nc(n1)NS(=O)(=O)c1cccc(c1)C(=O)N(Cc1cncc(N(C)C(C)C)n1)[C@H](CC1(C)CCC1)CO2 [Compound 1745] | +++ (+++ is >60+) | 
31 | Cc1cccc(C)c1-c1cc2nc(n1)NS(=O)(=O)c1cccc(c1)C(=O)N(Cc1cncc(N3CCC[C@@H]4CC[C@@H]43)n1)[C@H](CCC(C)C)CO2 [Compound 1747] | +++ (+++ is >60+) | 
32 | Cc1cccc(C)c1-c1cc2nc(n1)NS(=O)(=O)c1cccc(c1)C(=O)N(Cc1cncc(N3CCCC[C@H]3C)n1)[C@H](CCC(C)C)CO2 [Compound 1749] | +++ (+++ is >60+) | 
33 | Cc1cccc(C)c1-c1cc2nc(n1)NS(=O)(=O)c1cccc(c1)C(=O)N(Cc1cncc(N3CC(C)(C)[C@H]3C(C)C)n1)[C@H](CC(C)(C)C)CO2 [Compound 1750] | +++ (+++ is >60+) | 
34 | Cc1cccc(C)c1-c1cc2nc(n1)NS(=O)(=O)c1cccc(c1)C(=O)N(Cc1cncc(N3CC4(CCC4)[C@H]3C(C)C)n1)[C@H](CC(C)(C)C)CO2 [Compound 1752] | +++ (+++ is >60+) | 
35 | CCC(CC)N(C)c1cncc(CN2C(=O)c3cccc(c3)S(=O)(=O)Nc3nc(cc(-c4c(C)cccc4C)n3)OC[C@H]2CC(C)(C)C)n1 [Compound 1754] | +++ (+++ is >60+) | 
36 | Cc1cccc(C)c1-c1cc2nc(n1)NS(=O)(=O)c1cccc(c1)C(=O)N(Cc1cnc3ccn(CC(C)C)c3n1)[C@H](CC(C)(C)C)CO2 [Compound 1755] | +++ (+++ is >60+) | 
37 | Cc1cccc(C)c1-c1cc2nc(n1)NS(=O)(=O)c1cccc(c1)C(=O)N(Cc1cnc3cc(C(C)C)n(C)c3n1)[C@H](CC(C)(C)C)CO2 [Compound 1756] | +++ (+++ is >60+) | 
38 | Cc1cccc(C)c1-c1cc2nc(n1)NS(=O)(=O)c1cccc(c1)C(=O)N(Cc1cncc(N(C)CC3(C)CC3)n1)[C@H](CC(C)(C)C)CO2 [Compound 1757] | +++ (+++ is >60+) | 
39 | COC1(CN(C)c2cncc(CN3C(=O)c4cccc(c4)S(=O)(=O)Nc4nc(cc(-c5c(C)cccc5C)n4)OC[C@H]3CC(C)(C)C)n2)CCC1 [Compound 1758] | +++ (+++ is >60+) | 
40 | Cc1cccc(C)c1-c1cc2nc(n1)NS(=O)(=O)c1cccc(c1)C(=O)N(Cc1cncc(N(C)CC(C)(C)F)n1)[C@H](CC(C)(C)C)CO2 [Compound 1759] | +++ (+++ is >60+) | 
41 | Cc1cccc(C)c1-c1cc2nc(n1)NS(=O)(=O)c1cccc(c1)C(=O)N(Cc1cncc(N3CCO[C@@H](C)[C@H]3C)n1)[C@H](CC(C)(C)C)CO2 [Compound 1761] | +++ (+++ is >60+) | 
42 | Cc1cccc(C)c1-c1cc2nc(n1)NS(=O)(=O)c1cccc(c1)C(=O)N(Cc1cccc(N(C)C(C)C)n1)[C@H](CC1(C)CCC1)CO2 [Compound 1762] | +++ (+++ is >60+) | 
